Reference: patent US11230542B2, “Inhibitors of integrated stress response pathway” (Praxis Biotech LLC, priority 2017, dated 2022)
Like-named read-outs stand apart in the source and are kept apart here.

Columns and labels:
ATF4 = ATF4 expression inhibition assay (thapsigargin-stressed HEK293T cells, western blot); format: cell-based; details: Homo sapiens, HEK-293T; for IC50: 3 h with 100 nM Tg, test compound 1 nM to 1 μM; for inhibition at 0.1 µM: 3 h with 100 nM thapsigargin (Tg) and 100 nM test compound; for inhibition at 0.1 µM / inhibition at 1 µM: Tg alone 0%, untreated 100%; for inhibition at 1 µM: 3 h with 100 nM thapsigargin (Tg) and 1 μM test compound
Experimental: HEK293T cells were maintained at 37° C. and 5% CO2 in Dulbecco's Modified Eagle's Media (DMEM) supplemented with 10% fetal bovine serum (FBS), 2 mM L-glutamine, 100 U/ml penicillin, and 100 μg/ml streptomycin. […] Cells without treatment or cells treated with Tg alone were used as controls.
After 3 hours of treatment with Tg and the test compound, cells were lysed with SDS-PAGE lysis buffer. Lysates were transferred to 1.5 ml tubes and sonicated for 3 min, and total protein amounts were quantified using BCA Protein Assay Kit (Pierce). Equal amount of proteins were loaded on SDS-PAGE gels. Proteins were transferred onto 0.2 μm PVDF membranes (BioRad) and probed with primary antibodies diluted in Tris-buffered saline supplemented with 0.1% Tween 20 and 3% bovine serum albumin.
(§1) ATF4 (11815) antibody was used as primary antibody (Cell Signaling Technologies). A horseradish peroxidase (HRP)-conjugated secondary antibody (Rockland) was employed to detect immune-reactive bands using enhanced chemiluminescence (ECL Western Blotting Substrate, Pierce). Quantification of protein bands was done by densitometry using ImageJ.
Percentages of ATF4 inhibition after induction with Tg in the presence of 100 nM or 1 μM of certain test compounds are shown in Table 2 and FIG. 1. Percentage of ATF4 inhibition was calculated as the percent reduction normalized to Tg treatment (0% inhibition) and untreated cells (100% inhibition). Also shown in Table 2 is the calculated IC50 for the test compounds. […] Accordingly, inhibition of ATF4 expression as a result of the test compound indicates suppression of the ISR pathway.

CHO cells = assay: Protein translation assay (puromycin incorporation in CHO cells, unstressed or Tg-stressed); format: cell-based, Chinese hamster; details: for activity at 0.1 µM / activity at 1 µM: Cricetulus griseus, media alone 100%; for activity at 0.1 µM: read-out: % Recovery of protein expression (100 nM test compound)
Experimental: CHO cells were maintained at 37° C. and 5% CO2 in DMEM supplemented with 10% fetal bovine serum (FBS), 2 mM L-glutamine, 100 U/ml penicillin, and 100 μg/ml streptomycin. After reaching 80% of confluence, cells were detached and seeded on 6 well plates in complete media, allowed to recover overnight and treated for 2 hours with 1 μM of the test compound (to assess protein synthesis levels in unstressed condition), or for 1 hour with 100 nM and 1 μM of the test compound and then co-treated with 300 nM Tg and 100 nM and 1 μM of the test compound (to assess the recovery of protein synthesis in a stressed condition). Cells treated with Tg alone were used as controls.
After the 2 hours treatments, media were replaced by adding 10 μg/ml puromycin (Sigma Aldrich) in complete media for 30 min. Media were removed and cells were lysed with SDS-PAGE lysis buffer. Lysates were transferred to 1.5 ml tubes and sonicated for 3 minutes and total protein amount were quantified using BCA Protein Assay Kit (Pierce). Equal amount of protein (30 μg) was loaded on SDS-PAGE gels. Proteins were transferred onto 0.2 μm PVDF membranes (BioRad) and probed with primary antibodies diluted in Tris-buffered saline supplemented with 0.1% Tween 20 and 3% bovine serum albumin.
as §1, with “Puromycin (12D10)” for “ATF4 (11815)”, “(Merck Millipore).” for “(Cell Signaling Technologies).”, “HRP-conjugated” for “horseradish peroxidase (HRP)-conjugated”
Percent increase of protein synthesis in unstressed cells (without Tg treatment) in the presence of media alone or certain test compounds is shown in Table 3 and FIG. 2. The percentage levels were normalized to the media alone condition, which correspond to 100% protein synthesis.
Percent recovery of protein synthesis in stressed cells (with Tg treatment) due to the test compounds at 100 nM or 1 μM is shown in FIGS. 3A and 3B, respectively, and in Table 3. The levels were normalized to the media alone and to Tg alone conditions, which correspond to 100% and 0% respectively.

fasted Balb/c mice = assay: Fasting-induced muscle atrophy; format: in vivo, mouse
Experimental: Wild type eight-weeks-old male Balb/c mice obtained from the vivarium Fundacion Ciencia & Vida Chile (Santiago, Chile) were used. Mice were housed in independent plastic cages in a room maintained at 25° C. with a 12-h:12-h light:dark cycle.
Twenty-four hours before and during the 2 days of fasted procedures, animals received oral administration via feeding tubes (15 gauge) of vehicle (50% Polyethylene glycol 400 (Sigma-Aldrich P3265) in distilled water or 10 mg/kg of compound 3 formulated in vehicle solution.
After 2 days of fasting the animals were sacrificed and muscles were removed from both hindlimbs. Mice with feed and water ad libitum were used as control.
For in vivo measurements of protein synthesis, puromycin (Sigma-Aldrich, P8833) was prepared at 0.04 μmol/g body weight in a volume of 200 μL of PBS, and subsequently administered into the animals via IP injection, 30 min prior to muscle collection.
Upon collection, muscles were immediately frozen in liquid nitrogen and then stored at −80° C. […] Protein concentration in supernatants was determined using BCA Protein Assay Kit (Pierce). […]
Puromycin (12D10) (Merck Millipore) and β-actin (Sigma-Aldrich) antibodies were used as primary antibodies. […] Quantification of protein bands was done by densitometry using ImageJ software. […]

[1] = CHO cells stressed with 300 nM Tg, Tg alone 0%
[2] = CHO cells stressed with 300 nM Tg, Tg alone 0%, read-out: % Recovery of protein expression (1 μM test compound)
[3] = unstressed CHO cells, 2 h, read-out: % Protein expression relative to untreated (1 μM test compound)

SMILES	IC50 (ATF4)	inhibition at 0.1 µM (ATF4)	inhibition at 1 µM (ATF4)	activity at 0.1 µM (CHO cells; [1])	activity at 1 µM (CHO cells; [2])	activity at 1 µM (CHO cells; [3])	ATF4 staining in muscle fiber CSA (fasted Balb/c mice)	protein translation (CHO cells; summary of Table 3)	protein synthesis in a cell versus ATF4 translation (CHO cells; under ISR-stressed or non-ISR stressed conditions)
O=C(NC1CCN(C[C@H](O)COc2ccc(Cl)c(F)c2)CC1)c1ccc2cc(Cl)ccc2n1 (single isomer, unassigned) [Compound 152, (+)-6-chloro-N-(1-(3-(4-chloro-3-fluorophenoxy)-2-hydroxypropyl)piperidin-4-yl)quinoline-2-carboxamide]	0.049 µM	86%	91%	99.1%	280%	239%	No staining was detected		
O=C(COc1ccc(Cl)c(F)c1)NC1CCN(CCCOc2ccc(Cl)c(F)c2)CC1 [Compound 28, 2-(4-chloro-3-fluorophenoxy)-N-(1-(3-(4-chloro-3-fluorophenoxy)propyl)piperidin-4-yl)acetamide]	0.0258 µM	88%	97%	38%	170%	99.3%			
O=C(NC1CCN(CC(O)COc2ccc(Cl)c(F)c2)CC1)c1cc2cc(Cl)ccc2o1 (centres unmarked) [Compound 29, 5-chloro-N-(1-(3-(4-chloro-3-fluorophenoxy)-2-hydroxypropyl)piperidin-4-yl)benzofuran-2-carboxamide]	0.0518 µM	87%	95%	48.4%	267%	186%			
O=C(N[C@H]1CC[C@H](NCC(O)COc2ccc(Cl)c(F)c2)CC1)c1ccc2cc(Cl)ccc2n1 (stereo partly drawn) [Compound 30, trans-6-chloro-N-(4-((3-(4-chloro-3-fluorophenoxy)-2-hydroxypropyl)amino)cyclohexyl)quinoline-2-carboxamide]	> 3 µM	35%	35%	23.1%	182%	206%		increased protein translation	increase protein synthesis in a cell without full inhibition of ATF4 translation
O=C(N[C@H]1CC[C@H](NCCOc2ccc(Cl)c(F)c2)CC1)c1ccc2cc(Cl)ccc2n1 [Compound 31, trans-6-chloro-N-(4-((2-(4-chloro-3-fluorophenoxy)ethyl)amino)cyclohexyl)quinoline-2-carboxamide]		41%	93%	25%	288%	243%			
O=C(N[C@H]1CC[C@H](NCCOc2ccc(Cl)c(F)c2)CC1)c1cc2cc(Cl)ccc2o1 [Compound 32, trans-5-chloro-N-(4-((2-(4-chloro-3-fluorophenoxy)ethyl)amino)cyclohexyl)benzofuran-2-carboxamide]		38%	78%	37.7%	234%	137%			
O=C(COc1ccc(Cl)c(F)c1)N[C@H]1CC[C@H](NC(=O)c2ccc3cc(Cl)ccc3c2)CC1 [Compound 145, trans-6-chloro-N-(4-(2-(4-chloro-3-fluorophenoxy)acetamido)cyclohexyl)-2-naphthamide]	0.0171 µM	97%	97%	22.6%	40.6%	95.4%			
O=C(NC1CCN(CCCOc2ccc(Cl)c(F)c2)CC1)c1ccc2cc(Cl)ccc2n1 [Compound 146, 6-chloro-N-(1-(3-(4-chloro-3-fluorophenoxy)propyl)piperidin-4-yl)quinoline-2-carboxamide]	0.0499 µM	88%	100%	43.4%	265%	246%			
O=C(N[C@H]1CC[C@H](NCC(O)COc2ccc(Cl)c(F)c2)CC1)c1cc2cc(Cl)ccc2o1 (stereo partly drawn) [Compound 147, trans-5-chloro-N-(4-((3-(4-chloro-3-fluorophenoxy)-2-hydroxypropyl)amino)cyclohexyl)benzofuran-2-carboxamide]	0.0331 µM	95%	100%	75.2%	262%	190%			
O=C(NC1CCN(CCCOc2ccc(Cl)c(F)c2)CC1)c1cc2cc(Cl)ccc2o1 [Compound 148, 5-chloro-N-(1-(3-(4-chloro-3-fluorophenoxy)propyl)piperidin-4-yl)benzofuran-2-carboxamide]		30%	90%	37.2%	250%	123%			
O=C(COc1ccc(Cl)cc1)N[C@H]1CC[C@H](NC(=O)C2CNc3cc(Cl)ccc3O2)CC1 (stereo partly drawn) [Compound 156, trans-6-chloro-N-(4-(2-(4-chlorophenoxy)acetamido)cyclohexyl)-3,4-dihydro-2H-benzo[b][1,4]oxazine-2-carboxamide]	0.016 µM	94%	97%	25.1%	200%	197%			
O=C(COc1ccc(Cl)cc1)N[C@H]1CC[C@H](N2CC(COc3ccc(Cl)cc3)OC2=O)CC1 (stereo partly drawn) [Compound 159, trans-2-(4-chlorophenoxy)-N-(4-(5-((4-chlorophenoxy)methyl)-2-oxooxazolidin-3-yl)cyclohexyl)acetamide]	< 0.1 µM	52%	84%	23.9%	79.4%				
